Read-outs that look alike come from different tables or passages of the source.
Key:
[1] = sodium salt of stereoisomer, 5% sucrose solution as control, optical purity 99% or more, cited from earlier work
[2] = cited from earlier work; for intensity of sweet taste: Nakamura et al., hydrochloride salts
[3] = Sweetness intensity of crystals of free (2R,4R)-monatin compared with an aqueous solution of 5% sucrose
Procedure: It was identified that the sweetness intensity (degree of sweetness) of the present crystals of free (2R,4R)-monatin is about 2500 times that of an aqueous solution of 5% sucrose. This sweetness intensity is nearly equivalent to the sweetness intensity (about 2700 times) of the crystals of the sodium salt of (2R,4R)-monatin evaluated by the inventors in Amino, Y. et al., WO 2003045914 A1.
1.05 mg of crystals of free (2R,4R)-monatin described in the above Comparative Example 1 were dissolved in 20 ml of ion-exchanged water. A solution was prepared by diluting this solution 2.5 times. The sweetness of this aqueous solution of the free compound of (2R,4R)-monatin was compared with that of an aqueous solution of 5% sucrose separately prepared.

[4] = Hygroscopic property test (25° C., humidity 95%); type: physicochemical; settings: for water absorption: high humidity condition; for Increase percentage (absorbed water amount) / Weight: 25° C., humidity 95%; for absorbed water: after 24 hours, 95% high humidity condition
Procedure: The crystals of free (2R,4R)-monatin (sample 1) prepared in Comparative Example 1, crystal of the potassium salt of (2R,4R)-monatin monohydrate (sample 2), and an amorphous solid of the potassium salt of (2R,4R)-monatin (sample 3) separately prepared were weighed out in an amount of 0.5 g, respectively, each was placed in a petri dish, and stored (retained) under a high humidity condition of 95% and a temperature of 25° C. After retention times of 1, 3, 6 and 24 hours, the weight of each sample was measured. The measuring conditions were as follows.
Apparatus name: HIFLEX TH401 supplied from ETAC.
Storing condition: 25° C., humidity of 95%.
Sample container: diameter of 25 cm, glass petri dish.

| Compound | degree of sweetness [1] [times] | Increase percentage (absorbed water amount) ([4]; retention time 0 hrs) [%] | Weight ([4]; retention time 0 hrs) [g] | Increase percentage (absorbed water amount) ([4]; retention time 1 hr) [%] | Weight ([4]; retention time 1 hr) [g] | Increase percentage (absorbed water amount) ([4]; retention time 3 hrs) [%] | Weight ([4]; retention time 3 hrs) [g] | Increase percentage (absorbed water amount) ([4]; retention time 6 hrs) [%] | Weight ([4]; retention time 6 hrs) [g] | Increase percentage (absorbed water amount) ([4]; retention time 24 hrs) [%] | Weight ([4]; retention time 24 hrs) [g] | other results |
| --- | --- | --- | --- | --- | --- | --- | --- | --- | --- | --- | --- | --- |
| N[C@H](C[C@](O)(Cc1c[nH]c2ccccc12)C(=O)O)C(=O)O [(2R,4R)-monatin substance, (2R,4R)-monatin] | 2700 | – | – | – | – | – | – | – | – | – | – | degree of sweetness ([1]; listed as (2R,4R)): 2700 times; degree of sweetness ([1]; listed as crystals of the sodium salt of (2R,4R)-monatin): about 2700 times |
| N[C@@H](C[C@](O)(Cc1c[nH]c2ccccc12)C(=O)O)C(=O)O [synthetic (2S,4R)-monatin, (2S,4R)-monatin] | – | – | – | – | – | – | – | – | – | – | – | intensity of sweet taste [2]: slightly sweet taste; intensity of sweet taste ([2]; listed as hydrochloride salt of (2S,4R)-monatin): almost no sweetness |
| N[C@@H](C[C@](O)(Cc1c[nH]c2ccccc12)C(=O)O)C(=O)O [(2S,4R)-monatin substance, (2S,4R)-monatin] | 300 | – | – | – | – | – | – | – | – | – | – | – |
| N[C@H](CC(O)(Cc1c[nH]c2ccccc12)C(=O)O)C(=O)O (stereo partly drawn) [Sample 1, (2R,4R)-monatin] | – | 0.00 | 0.5000 | 0.00 | 0.5000 | 0.00 | 0.4996 | 0.00 | 0.5001 | 0.00 | 0.4997 | sweetness compared with aqueous solution of 5% sucrose ([3]; 1.05 mg in 20 ml ion-exchanged water, diluted 2.5 times): nearly equivalent sweetness intensity; sweetness intensity (degree of sweetness) ([3]; relative to an aqueous solution of 5% sucrose): about 2500 times; water absorption ([4]; listed as crystal of free (2R,4R)-monatin): scarcely absorbs water; water absorption ([4]; listed as crystals of free (2R,4R)-monatin): no water absorption |
| N[C@@H](C[C@@](O)(Cc1c[nH]c2ccccc12)C(=O)O)C(=O)O [(2S,4S)-monatin, (2S,4S)-2-amino-4-carboxy-4-hydroxy-5-(3-indolyl)-pentanoic acid] | – | – | – | – | – | – | – | – | – | – | – | sweetness intensity ([2]; times that of sucrose, Vleggaar et al.): 800 to 1400 times |
| potassium salt of (2R,4R)-monatin monohydrate [Sample 2] | – | 0.00 | 0.5007 | 1.08 | 0.5061 | 3.71 | 0.5193 | 4.89 | 0.5252 | 5.39 | 0.5277 | absorbed water [4]: 5.4 wt. % |
| N[C@H](C[C@@](O)(Cc1c[nH]c2ccccc12)C(=O)O)C(=O)O [(2R,4S)-monatin substance, (2R,4S)-monatin] | 1300 | – | – | – | – | – | – | – | – | – | – | – |
| NC(CC(O)(Cc1c[nH]c2ccccc12)C(=O)O)C(=O)O [(2S,4S)-monatin substance, (2S,4S)-monatin] | 50 | – | – | – | – | – | – | – | – | – | – | – |
| potassium salt of (2R,4R)-monatin [Sample 3] | – | 0.00 | 0.5014 | 8.82 | 0.5456 | 8.58 | 0.5444 | 7.30 | 0.5383 | 7.30 | 0.5380 | absorbed water [4]: 7.3 wt. % |
| NC(CC(O)(Cc1c[nH]c2ccccc12)C(=O)O)C(=O)O [synthetic (2S,4S)-monatin, (2S,4S)-monatin] | – | – | – | – | – | – | – | – | – | – | – | intensity of sweet taste [2]: equivalent to that of the natural specimen of monatin |

From patent US7935377B2, “Crystals of free (2R, 4R)-monatin and use thereof” (Ajinomoto Co., Inc., priority 2004, dated 2011)
